In ChEMBL document CHEMBL1134931, “Aminoalkoxybiphenylnitriles as histamine-3 receptor ligands” (Bioorg Med Chem Lett, 2002):

What was measured:
[1] = molecular target: T1, Histamine H1 receptor (Homo sapiens, UniProt P35367); test: Binding affinity of human cortical histamine H1 receptor
[2] = molecular target: T2, Histamine H3 receptor (Homo sapiens, UniProt Q9Y5N1); test: Binding affinity at human cloned Histamine H3 receptor
[3] = molecular target: T3, Histamine H3 receptor (Rattus norvegicus, UniProt Q9QYN8); test: Binding affinity at rat cortical Histamine H3 receptor
T3 sequence (Q9QYN8 whole entry): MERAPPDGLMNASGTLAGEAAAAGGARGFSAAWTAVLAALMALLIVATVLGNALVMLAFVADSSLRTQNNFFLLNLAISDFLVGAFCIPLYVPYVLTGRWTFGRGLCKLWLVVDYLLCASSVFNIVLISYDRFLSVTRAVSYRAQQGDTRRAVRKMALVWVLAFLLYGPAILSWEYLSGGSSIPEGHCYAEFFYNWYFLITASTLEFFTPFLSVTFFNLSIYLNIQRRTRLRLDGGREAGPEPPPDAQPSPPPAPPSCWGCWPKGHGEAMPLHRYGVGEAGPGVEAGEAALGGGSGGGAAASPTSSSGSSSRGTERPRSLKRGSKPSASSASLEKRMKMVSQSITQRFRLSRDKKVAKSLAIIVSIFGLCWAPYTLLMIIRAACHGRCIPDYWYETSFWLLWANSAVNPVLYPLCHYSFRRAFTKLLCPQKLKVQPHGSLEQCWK

[4] = molecular target: T4, Histamine H2 receptor (Homo sapiens, UniProt P25021); test: Binding affinity to the human cortical histamine H2 receptor
T4 sequence (P25021 whole entry): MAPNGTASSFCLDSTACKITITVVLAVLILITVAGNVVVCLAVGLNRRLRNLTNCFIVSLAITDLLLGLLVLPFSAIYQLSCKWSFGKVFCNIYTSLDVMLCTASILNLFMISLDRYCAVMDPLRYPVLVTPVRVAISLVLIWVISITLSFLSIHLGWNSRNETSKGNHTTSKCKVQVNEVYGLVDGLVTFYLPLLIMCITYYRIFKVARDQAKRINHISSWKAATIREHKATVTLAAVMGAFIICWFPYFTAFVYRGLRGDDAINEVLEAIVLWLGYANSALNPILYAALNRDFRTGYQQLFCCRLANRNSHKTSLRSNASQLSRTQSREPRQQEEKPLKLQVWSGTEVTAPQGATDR

[5] = molecular target: T2, Histamine H3 receptor; test: Binding affinity at human cloned Histamine 3 receptor
[6] = molecular target: T3, Histamine H3 receptor; test: Binding affinity at rat cortical Histamine 3 receptor
[7] = molecular target: T1, Histamine H1 receptor; test: Binding affinity at human cortical Histamine 1 receptor
[8] = molecular target: T4, Histamine H2 receptor; test: Binding affinity at human cortical Histamine 2 receptor

T1 sequence (P35367 whole entry): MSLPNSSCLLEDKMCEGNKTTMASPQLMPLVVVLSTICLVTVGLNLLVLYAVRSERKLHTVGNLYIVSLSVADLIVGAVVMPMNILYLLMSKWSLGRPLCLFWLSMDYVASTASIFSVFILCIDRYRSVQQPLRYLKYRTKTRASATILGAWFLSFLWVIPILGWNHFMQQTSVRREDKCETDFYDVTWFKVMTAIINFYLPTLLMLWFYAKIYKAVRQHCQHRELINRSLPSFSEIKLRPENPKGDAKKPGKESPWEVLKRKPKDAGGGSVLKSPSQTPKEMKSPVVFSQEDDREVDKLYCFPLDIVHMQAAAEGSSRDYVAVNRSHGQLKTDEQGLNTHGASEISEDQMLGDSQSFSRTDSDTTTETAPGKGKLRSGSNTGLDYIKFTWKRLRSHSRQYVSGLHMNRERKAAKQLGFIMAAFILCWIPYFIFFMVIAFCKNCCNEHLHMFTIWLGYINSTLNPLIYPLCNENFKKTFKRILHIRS
T2 sequence (Q9Y5N1 whole entry): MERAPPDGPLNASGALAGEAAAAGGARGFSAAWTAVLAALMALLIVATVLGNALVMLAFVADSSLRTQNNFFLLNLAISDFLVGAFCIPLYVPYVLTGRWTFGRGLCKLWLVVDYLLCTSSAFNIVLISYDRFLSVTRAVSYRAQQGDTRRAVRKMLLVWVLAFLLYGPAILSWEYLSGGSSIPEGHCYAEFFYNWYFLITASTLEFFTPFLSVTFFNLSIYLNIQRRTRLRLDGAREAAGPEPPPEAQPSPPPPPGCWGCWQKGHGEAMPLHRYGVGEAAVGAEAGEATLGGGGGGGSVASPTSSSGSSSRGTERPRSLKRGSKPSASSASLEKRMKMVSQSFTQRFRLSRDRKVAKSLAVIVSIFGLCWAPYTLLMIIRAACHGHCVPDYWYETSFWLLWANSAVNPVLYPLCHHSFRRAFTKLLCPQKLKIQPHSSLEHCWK

Structure (SMILES)	Ki [1]	Ki [2]	Ki [3]	Ki [4]	Ki [5]	Ki [6]	Ki [7]	Ki [8]
CCOC(=O)N1CCN(CCCOc2ccc(-c3cc[nH]c3)cc2)CC1	501 nM	1000 nM	56.2 nM	12900 nM				
N#Cc1ccc(-c2ccc(OCCCN3CCC(O)CC3)cc2)cc1	575 nM	123 nM	31.6 nM	10000 nM				
N#Cc1ccc(-c2ccc(OCCCN3CCC(N)CC3)cc2)cc1					200 nM	129 nM	3550 nM	33900 nM
CC1CCCCN1CCCOc1ccc(-c2ccc(C#N)cc2)cc1 (stereo not given)	3470 nM	7.08 nM	22.9 nM	18600 nM				
N#Cc1ccc(-c2ccc(OCCCN3CC[C@@H](O)C3)cc2)cc1					8.32 nM		4470 nM	17000 nM
CCOC(=O)N1CCN(CCCOc2ccc(-c3c[nH]cn3)cc2)CC1	1480 nM		871 nM	69200 nM				
N#Cc1ccc(-c2ccc(OCCCN3CC[C@@H](N)C3)cc2)cc1					6.17 nM	63.1 nM	13800 nM	7410 nM
CCOC(=O)N1CCN(CCCOc2ccc(-c3cccc(C#N)c3)cc2)CC1							380 nM	24000 nM
CCOC(=O)N1CCN(CCCOc2ccc(-c3ccc(Cl)cc3)cc2)CC1						191 nM	355 nM	5620 nM
CCOC(=O)N1CCN(CCCOc2ccc(-c3ccc(OC)cc3)cc2)CC1	355 nM			100000 nM				
CC1CCCC(C)N1CCCOc1ccc(-c2ccc(C#N)cc2)cc1 (stereo not given)	3980 nM	2.14 nM	16.2 nM	24000 nM				
CCOC(=O)N1CCN(CCCOc2ccc(-c3ccsc3)cc2)CC1	759 nM		209 nM	97700 nM				
N#Cc1ccc(-c2ccc(OCCCN3CCNCC3)cc2)cc1	8910 nM	117 nM	589 nM	22900 nM				
CCOC(=O)N1CCN(CCCOc2ccc(-c3ccc(C#N)cc3C)cc2)CC1	27.5 nM		102 nM	3980 nM				
C[C@@H]1CC[C@@H](C)N1CCCOc1ccc(-c2ccc(C#N)cc2)cc1	562 nM	0.676 nM	6.46 nM	9120 nM				
CCOC(=O)N1CCN(CCCOc2ccc(-c3ccccc3[N+](=O)[O-])cc2)CC1						617 nM	162 nM	7590 nM
N#Cc1ccc(-c2ccc(OCCCN3CCCNCC3)cc2)cc1	3890 nM	8.32 nM	13.5 nM	7760 nM				

Structure (SMILES)	Ki [1]	Ki [2]	Ki [3]	Ki [4]	Ki [5]	Ki [6]	Ki [7]	Ki [8]
N#Cc1ccc(-c2ccc(OCCCN3CCOCC3)cc2)cc1	3240 nM	36.3 nM	25.1 nM	38000 nM				
CN[C@@H]1CCN(CCCOc2ccc(-c3ccc(C#N)cc3)cc2)C1	3720 nM	8.51 nM		10000 nM				
N#Cc1ccc(-c2ccc(OCCCN3CCCC(O)C3)cc2)cc1 (stereo not given)	7760 nM	30.2 nM	81.3 nM	12900 nM				
CCOC(=O)N1CCN(CCCOc2ccc(-c3cccs3)cc2)CC1	447 nM		229 nM	33100 nM				
C[C@@]1(O)CCN(CCCOc2ccc(-c3ccc(C#N)cc3)cc2)C1	3890 nM	4.07 nM	15.5 nM	15100 nM				
N#Cc1ccc(-c2ccc(OCCCN3CCCC3)cc2)cc1					7.24 nM	41.7 nM	5010 nM	67600 nM
CCOC(=O)N1CCN(CCCOc2ccc(-c3ccc(Br)cc3)cc2)CC1	182 nM		112 nM	1660 nM				
CCOC(=O)N1CCN(CCCOc2ccc(-c3ccc([N+](=O)[O-])cc3)cc2)CC1						97.7 nM	81.3 nM	8320 nM
N#Cc1ccc(-c2ccc(OCCCN3CC[C@H](O)C3)cc2)cc1					19.5 nM	126 nM	5620 nM	19100 nM
CN(C)[C@@H]1CCN(CCCOc2ccc(-c3ccc(C#N)cc3)cc2)C1	1910 nM	2.75 nM	13.5 nM	10000 nM				
CCOC(=O)N1CCN(CCCOc2ccc(-c3ccc(C#N)cc3)cc2)CC1	158 nM	1000 nM	28.2 nM	28800 nM				
CC1CCCN(CCCOc2ccc(-c3ccc(C#N)cc3)cc2)C1 (stereo not given)	275 nM	1.7 nM	26.3 nM	11700 nM				
CC1CCN(CCCOc2ccc(-c3ccc(C#N)cc3)cc2)CC1	427 nM	13.8 nM	9.77 nM	9120 nM				
CCOC(=O)N1CCN(CCCOc2ccc(-c3ccncc3)cc2)CC1	3720 nM			57500 nM				
N#Cc1ccc(-c2ccc(OCCCN3CC4CNCC4C3)cc2)cc1 (stereo not given)	2880 nM	15.1 nM	66.1 nM	12300 nM				
CCOC(=O)N1CCN(CCCOc2ccc(-c3ccc(OC(F)(F)F)cc3)cc2)CC1	437 nM		240 nM	3630 nM				
